Assay results as given in the NIST ThermoML archive (doi:10.1016/j.jct.2015.11.023).
Numbers after ± are expanded uncertainties.

Experiment: refractive index (Na D-line) (dimensionless)
Settings: 303.15 K; 101.33 kPa; Liquid; Standard Abbe refractometry

Compound	refractive index
CCCCC[n+]1ccccc1.N#C[N-]C#N [1-pentylpyridinium dicyanamide]	1.5287 ± 0.003
CCCC[n+]1ccccc1.N#C[N-]C#N [1-butylpyridinium dicyanamide]	1.5325 ± 0.003
CCC[n+]1ccccc1.N#C[N-]C#N [1-propylpyridinium dicyanamide]	1.539 ± 0.006

Same assay, conditions: 308.15 K; 101.33 kPa; Liquid; Standard Abbe refractometry

Compound	refractive index
CCCCC[n+]1ccccc1.N#C[N-]C#N [1-pentylpyridinium dicyanamide]	1.5272 ± 0.003
CCCC[n+]1ccccc1.N#C[N-]C#N [1-butylpyridinium dicyanamide]	1.5309 ± 0.003
CCC[n+]1ccccc1.N#C[N-]C#N [1-propylpyridinium dicyanamide]	1.5374 ± 0.006

Same assay, conditions: 313.15 K; 101.33 kPa; Liquid; Standard Abbe refractometry

Compound	refractive index
CCCCC[n+]1ccccc1.N#C[N-]C#N [1-pentylpyridinium dicyanamide]	1.5258 ± 0.003
CCCC[n+]1ccccc1.N#C[N-]C#N [1-butylpyridinium dicyanamide]	1.5285 ± 0.003
CCC[n+]1ccccc1.N#C[N-]C#N [1-propylpyridinium dicyanamide]	1.5356 ± 0.006

Same assay, conditions: 318.15 K; 101.33 kPa; Liquid; Standard Abbe refractometry

Compound	refractive index
CCCCC[n+]1ccccc1.N#C[N-]C#N [1-pentylpyridinium dicyanamide]	1.5243 ± 0.003
CCCC[n+]1ccccc1.N#C[N-]C#N [1-butylpyridinium dicyanamide]	1.527 ± 0.003
CCC[n+]1ccccc1.N#C[N-]C#N [1-propylpyridinium dicyanamide]	1.5342 ± 0.006

Same assay, conditions: 323.15 K; 101.33 kPa; Liquid; Standard Abbe refractometry

Compound	refractive index
CCCCC[n+]1ccccc1.N#C[N-]C#N [1-pentylpyridinium dicyanamide]	1.523 ± 0.003
CCCC[n+]1ccccc1.N#C[N-]C#N [1-butylpyridinium dicyanamide]	1.5253 ± 0.003
CCC[n+]1ccccc1.N#C[N-]C#N [1-propylpyridinium dicyanamide]	1.5329 ± 0.006

Same assay, conditions: 328.15 K; 101.33 kPa; Liquid; Standard Abbe refractometry

Compound	refractive index
CCCCC[n+]1ccccc1.N#C[N-]C#N [1-pentylpyridinium dicyanamide]	1.5212 ± 0.003
CCCC[n+]1ccccc1.N#C[N-]C#N [1-butylpyridinium dicyanamide]	1.5237 ± 0.003
CCC[n+]1ccccc1.N#C[N-]C#N [1-propylpyridinium dicyanamide]	1.5312 ± 0.006

Same assay, conditions: 333.15 K; 101.33 kPa; Liquid; Standard Abbe refractometry

Compound	refractive index
CCCCC[n+]1ccccc1.N#C[N-]C#N [1-pentylpyridinium dicyanamide]	1.5194 ± 0.003
CCCC[n+]1ccccc1.N#C[N-]C#N [1-butylpyridinium dicyanamide]	1.5217 ± 0.003
CCC[n+]1ccccc1.N#C[N-]C#N [1-propylpyridinium dicyanamide]	1.5293 ± 0.006

Same assay, conditions: 338.15 K; 101.33 kPa; Liquid; Standard Abbe refractometry

Compound	refractive index
CCCCC[n+]1ccccc1.N#C[N-]C#N [1-pentylpyridinium dicyanamide]	1.5179 ± 0.003
CCCC[n+]1ccccc1.N#C[N-]C#N [1-butylpyridinium dicyanamide]	1.5202 ± 0.003
CCC[n+]1ccccc1.N#C[N-]C#N [1-propylpyridinium dicyanamide]	1.5276 ± 0.006

Experiment: not given
Settings: 303.15 K, Maximal bubble pressure

Compound	surface tension liquid-gas [mN/m]
CCCCC[n+]1ccccc1.N#C[N-]C#N [1-pentylpyridinium dicyanamide]	53 ± 0.5
CCCC[n+]1ccccc1.N#C[N-]C#N [1-butylpyridinium dicyanamide]	55.5 ± 0.5
CCC[n+]1ccccc1.N#C[N-]C#N [1-propylpyridinium dicyanamide]	57.7 ± 0.8

Same assay, conditions: 303.15 K; 101.33 kPa; Liquid; Vibrating tube method

Compound	mass density [kg/m3]
CCCCC[n+]1ccccc1.N#C[N-]C#N [1-pentylpyridinium dicyanamide]	1050.05 ± 2
CCCC[n+]1ccccc1.N#C[N-]C#N [1-butylpyridinium dicyanamide]	1065.76 ± 2
CCC[n+]1ccccc1.N#C[N-]C#N [1-propylpyridinium dicyanamide]	1086.92 ± 4.1

Same assay, conditions: 308.15 K, Maximal bubble pressure

Compound	surface tension liquid-gas [mN/m]
CCCCC[n+]1ccccc1.N#C[N-]C#N [1-pentylpyridinium dicyanamide]	52.7 ± 0.5
CCCC[n+]1ccccc1.N#C[N-]C#N [1-butylpyridinium dicyanamide]	55.2 ± 0.5
CCC[n+]1ccccc1.N#C[N-]C#N [1-propylpyridinium dicyanamide]	57.4 ± 0.8

Same assay, conditions: 308.15 K; 101.33 kPa; Liquid; Vibrating tube method

Compound	mass density [kg/m3]
CCCCC[n+]1ccccc1.N#C[N-]C#N [1-pentylpyridinium dicyanamide]	1047.03 ± 2
CCCC[n+]1ccccc1.N#C[N-]C#N [1-butylpyridinium dicyanamide]	1062.7 ± 2
CCC[n+]1ccccc1.N#C[N-]C#N [1-propylpyridinium dicyanamide]	1083.79 ± 4.1

Same assay, conditions: 313.15 K, Maximal bubble pressure

Compound	surface tension liquid-gas [mN/m]
CCCCC[n+]1ccccc1.N#C[N-]C#N [1-pentylpyridinium dicyanamide]	52.4 ± 0.5
CCCC[n+]1ccccc1.N#C[N-]C#N [1-butylpyridinium dicyanamide]	54.9 ± 0.5
CCC[n+]1ccccc1.N#C[N-]C#N [1-propylpyridinium dicyanamide]	57 ± 0.8

Same assay, conditions: 313.15 K; 101.33 kPa; Liquid; Vibrating tube method

Compound	mass density [kg/m3]
CCCCC[n+]1ccccc1.N#C[N-]C#N [1-pentylpyridinium dicyanamide]	1044.03 ± 2
CCCC[n+]1ccccc1.N#C[N-]C#N [1-butylpyridinium dicyanamide]	1059.66 ± 2
CCC[n+]1ccccc1.N#C[N-]C#N [1-propylpyridinium dicyanamide]	1080.69 ± 4.1

Same assay, conditions: 318.15 K, Maximal bubble pressure

Compound	surface tension liquid-gas [mN/m]
CCCCC[n+]1ccccc1.N#C[N-]C#N [1-pentylpyridinium dicyanamide]	52.1 ± 0.5
CCCC[n+]1ccccc1.N#C[N-]C#N [1-butylpyridinium dicyanamide]	54.5 ± 0.5
CCC[n+]1ccccc1.N#C[N-]C#N [1-propylpyridinium dicyanamide]	56.7 ± 0.8

Same assay, conditions: 318.15 K; 101.33 kPa; Liquid; Vibrating tube method

Compound	mass density [kg/m3]
CCCCC[n+]1ccccc1.N#C[N-]C#N [1-pentylpyridinium dicyanamide]	1041.04 ± 2
CCCC[n+]1ccccc1.N#C[N-]C#N [1-butylpyridinium dicyanamide]	1056.64 ± 2
CCC[n+]1ccccc1.N#C[N-]C#N [1-propylpyridinium dicyanamide]	1077.6 ± 4.1

Same assay, conditions: 323.15 K, Maximal bubble pressure

Compound	surface tension liquid-gas [mN/m]
CCCCC[n+]1ccccc1.N#C[N-]C#N [1-pentylpyridinium dicyanamide]	51.7 ± 0.5
CCCC[n+]1ccccc1.N#C[N-]C#N [1-butylpyridinium dicyanamide]	54.2 ± 0.5
CCC[n+]1ccccc1.N#C[N-]C#N [1-propylpyridinium dicyanamide]	56.4 ± 0.8

Same assay, conditions: 323.15 K; 101.33 kPa; Liquid; Vibrating tube method

Compound	mass density [kg/m3]
CCCCC[n+]1ccccc1.N#C[N-]C#N [1-pentylpyridinium dicyanamide]	1038.07 ± 2
CCCC[n+]1ccccc1.N#C[N-]C#N [1-butylpyridinium dicyanamide]	1053.63 ± 2
CCC[n+]1ccccc1.N#C[N-]C#N [1-propylpyridinium dicyanamide]	1074.52 ± 4.1

Same assay, conditions: 328.15 K, Maximal bubble pressure

Compound	surface tension liquid-gas [mN/m]
CCCCC[n+]1ccccc1.N#C[N-]C#N [1-pentylpyridinium dicyanamide]	51.4 ± 0.5
CCCC[n+]1ccccc1.N#C[N-]C#N [1-butylpyridinium dicyanamide]	53.9 ± 0.5
CCC[n+]1ccccc1.N#C[N-]C#N [1-propylpyridinium dicyanamide]	56.1 ± 0.8

Same assay, conditions: 328.15 K; 101.33 kPa; Liquid; Vibrating tube method

Compound	mass density [kg/m3]
CCCCC[n+]1ccccc1.N#C[N-]C#N [1-pentylpyridinium dicyanamide]	1035.11 ± 2
CCCC[n+]1ccccc1.N#C[N-]C#N [1-butylpyridinium dicyanamide]	1050.63 ± 2
CCC[n+]1ccccc1.N#C[N-]C#N [1-propylpyridinium dicyanamide]	1071.46 ± 4.1

Same assay, conditions: 333.15 K, Maximal bubble pressure

Compound	surface tension liquid-gas [mN/m]
CCCCC[n+]1ccccc1.N#C[N-]C#N [1-pentylpyridinium dicyanamide]	51.2 ± 0.5
CCCC[n+]1ccccc1.N#C[N-]C#N [1-butylpyridinium dicyanamide]	53.6 ± 0.5
CCC[n+]1ccccc1.N#C[N-]C#N [1-propylpyridinium dicyanamide]	55.7 ± 0.8

Same assay, conditions: 333.15 K; 101.33 kPa; Liquid; Vibrating tube method

Compound	mass density [kg/m3]
CCCCC[n+]1ccccc1.N#C[N-]C#N [1-pentylpyridinium dicyanamide]	1032.17 ± 2
CCCC[n+]1ccccc1.N#C[N-]C#N [1-butylpyridinium dicyanamide]	1047.66 ± 2
CCC[n+]1ccccc1.N#C[N-]C#N [1-propylpyridinium dicyanamide]	1068.42 ± 4.1

Same assay, conditions: 338.15 K, Maximal bubble pressure

Compound	surface tension liquid-gas [mN/m]
CCCCC[n+]1ccccc1.N#C[N-]C#N [1-pentylpyridinium dicyanamide]	51 ± 0.5
CCCC[n+]1ccccc1.N#C[N-]C#N [1-butylpyridinium dicyanamide]	53.4 ± 0.5
CCC[n+]1ccccc1.N#C[N-]C#N [1-propylpyridinium dicyanamide]	55.4 ± 0.8

Same assay, conditions: 338.15 K; 101.33 kPa; Liquid; Vibrating tube method

Compound	mass density [kg/m3]
CCCCC[n+]1ccccc1.N#C[N-]C#N [1-pentylpyridinium dicyanamide]	1029.24 ± 2
CCCC[n+]1ccccc1.N#C[N-]C#N [1-butylpyridinium dicyanamide]	1044.69 ± 2
CCC[n+]1ccccc1.N#C[N-]C#N [1-propylpyridinium dicyanamide]	1065.4 ± 4.1
